Literature values in patent US11111202B2, “Production of salts of 4-hydroxybutyrate using biobased raw materials” (CJ Cheiljedang Corporation, priority 2012, dated 2021).

Experiments:
[1] = or even longer if large doses have been consumed
[2] = after oral administration

O=C(O)CCCO [GHB, γ-Hydroxybutyric acid]
duration of the effects of GHB [1]: 1.5 to 3 h | time of peak plasma concentration [2]: 20 to 60 min
